The values below come from PMC9306752, “Sandacrabins – Structurally Unique Antiviral RNA Polymerase Inhibitors from a Rare Myxobacterium” (Chemistry (Weinheim an Der Bergstrasse, Germany), 2022).

Molecules are shown by their SMILES. ≈ marks a conversion by molar mass, not a printed value. Where two headings read alike, the source gives them in different places. Bounds are passed on as bounds.

Series [1] concerns Bacillus subtilis DSM-10. The experiment in a line: Antimicrobial MIC determination, serial dilution in 96 well plates. It counts as cell-based.
In series [2] the test system is Staphylococcus aureus Newman. The description is as above. It counts as cell-based. Conditions: 24 h at 37 °C.
Series [3] deals with Candida albicans DSM-1665. The description is as above. Format: cell-based. Conditions: DSM1665.
The test system of series [4] is Pichia anomala. Described as above. It counts as cell-based. Conditions: Hansenula anomala.
The test system of series [5] is Escherichia coli BW25113. Described as above. The settings on record: 24 h at 37 °C. Format: cell-based.
The test system of series [6] is Escherichia coli ΔacrB JW0451-2. Described as above. Conditions: 24 h. Format: cell-based.
Series [7] relates to Pseudomonas aeruginosa PA14. The series is described as above. It counts as cell-based. Conditions: 24 h at 37 °C.
For series [8], the system named is Mycobacterium smegmatis mc2 155. The series is described as above. The settings on record: Mycolicibacterium smegmatis, MC2155. It counts as cell-based.
Series [9] deals with HCoV229E. The series is described as follows: cells. It counts as cell-based, human pathogenic coronavirus HCoV229E. The settings on record: for IC50: HCoV229E replication in Huh-7.5 cells; for factor between cytotoxic activity (IC50 Huh-7.5) and antiviral activity (IC50 HCoV229E): IC50 Huh-7.5 versus IC50 HCoV229E.
For series [10], the target named is SARS-CoV-2 RdRp complex (Nsp7, Nsp8, Nsp12) (Severe acute respiratory syndrome coronavirus 2, UniProt P0DTD1). The experiment in a line: biochemical. Conditions: full template-length RNA product.
For series [11], the system named is Huh 7.5 cells. The series is described as follows: MTT assay, non-infected cells. Format: cell-based. The settings on record: Homo sapiens, Huh7.5, 120 h. (In general: Tetrazolium dyes change colour on reduction, which living cells bring about.)
Series [12] relates to U-2 OS cells. The experiment in a line: MTT assay. It counts as cell-based. The settings on record: Homo sapiens, U2OS, 120 h.
Series [13] has as its system Acyrthosiphon pisum. The series is described as follows: Insecticidal activity, direct application to the posterior segment of adult insects. Format: in vivo. The settings on record: for Death rate at 0.5 μg/insect: adult A. pisum, 0.5 μg/insect in acetone, survival after one hour; for Death rate at 0.5 μg/insect / Death rate: 20 insects; for Death rate: positive control, 0.5 microliter of 0.01 μg/mL in acetone, after one hour.

Series [14] concerns Huh-7.5 host cells. Conditions: Huh-7.5 host cells in the antiviral assay.
Setting [15] is: DSM10, 24 h at 37 °C, read-out: MIC.
The mark [16] stands for this setting: Homo sapiens, Huh7.5, 48 h at 33 °C.
Setting [17] is: non-infected Huh 7.5 cells, 5 days at 37 °C.

By MIC is commonly meant the smallest concentration in the dilution series that meets the test's criterion for growth inhibition. Turning to `CN[C@H](CC(C)C)C(=O)N[C@H]1C(=O)N[C@@H](CC(N)=O)C(=O)N[C@H]2C(=O)N[C@H]3C(=O)N[C@H](C(=O)N[C@H](C(=O)O)c4cc(O)cc(O)c4-c4cc3ccc4O)[C@H](O)c3ccc(c(Cl)c3)Oc3cc2cc(c3O[C@@H]2O[C@H](CO)[C@@H](O)[C@H](O)[C@H]2O[C@H]2C[C@](C)(N)[C@H](O)[C@H](C)O2)Oc2ccc(cc2Cl)[C@H]1O` [Vancomycin, reference compound], the minimum inhibitory concentration (MIC) in [1] (setting [15]) is 0.1 to 0.2 µg/mL (≈ 0.069 to 0.138 µM).
In general, IC50 refers to the midpoint of a concentration-inhibition curve. Low values mean higher potency, high ones lower potency. In the case of `CC(C)=CCC/C(C)=C/CC/C(C)=C/Cn1c(C)nc2cc(C)c(C)cc21` [Sandacrabin E], the MIC in series [1] (24 h at 37 °C) was 64 µg/mL (≈ 176 µM); in series [1] (setting [15]) it was 64 µg/mL (≈ 176 µM); in series [2], 64 µg/mL (≈ 176 µM); in series [3], over 64 µg/mL; in series [4], over 64 µg/mL; in [5], over 64 µg/mL. Besides, the figures for the minimal inhibitory concentration (MIC) in [6], in [7] and in series [8] were over 64 µg/mL, over 64 µg/mL and 64 µg/mL (≈ 176 µM), respectively. The IC50 in [9] (setting [16]) was determined as 1.91 µM; in series [10], 43 µM; in series [11] (setting [17]) it was 6.72 µM; in series [12] (5 days at 37 °C), 13.7 µM. In addition, the “factor between cytotoxic activity (IC50 Huh-7.5) and antiviral activity (IC50 HCoV229E)” value (“factor between cytotoxic activity” for short) in series [9] was 3–4 fold. In addition, the “Death rate at 0.5 μg/insect” value in series [13] came out at 90%.
Turning to `CC(C)=CCC/C(C)=C/CC/C(C)=C/Cn1cnc2cc(C)c(C)cc21` [Sandacrabin D], the MIC in series [1] (24 h at 37 °C) was 64 µg/mL (≈ 183 µM); in series [1] (setting [15]) it was 64 µg/mL (≈ 183 µM); in [2] it was 64 µg/mL (≈ 183 µM); in series [3], over 64 µg/mL; in series [4] it was over 64 µg/mL; in series [5] it was over 64 µg/mL. Further, the minimum inhibitory concentration (MIC) was over 64 µg/mL in series [6], over 64 µg/mL in series [7] and 64 µg/mL (≈ 183 µM) in [8]. Besides, the IC50 in [9] (setting [16]) stood at 1.64 µM; in [10] it was 85 µM; in [11] (setting [17]), 4.63 µM; in [12] (5 days at 37 °C), 16.9 µM. In series [9], the “factor between cytotoxic activity” value was 3–4 fold. Besides, the “Death rate at 0.5 μg/insect” value in series [13] turned out to be 100%.
For the compound `CCC(CC)COC(=O)[C@H](C)N[P@](=O)(OC[C@H]1O[C@@](C#N)(c2ccc3c(N)ncnn23)[C@H](O)[C@@H]1O)Oc1ccccc1` [Remdesivir, reference compound], the IC50 in series [9] (positive control, 48 h) was found to be 0.0056 µM.
On to `O=[N+]([O-])NC1=NCCN1Cc1ccc(Cl)nc1` [Imidacloprid, reference compound], for which the Death rate is recorded as 100 (Imidacloprid) % in series [13] and 100% in [13] (listed as imidacloprid).
On to `CC(C)=CCC/C(C)=C/CC/C(C)=C/Cn1c[n+](C/C=C(\C)CC/C=C(\C)CCC=C(C)C)c2cc(C)c(C)cc21` [Sandacrabin B], for which the minimal inhibitory concentration (MIC) in series [1] (24 h at 37 °C) is 64 µg/mL; in series [1] (setting [15]) it was 64 µg/mL; in [2] it was 64 to 128 µg/mL; in series [3], over 64 µg/mL; in series [4] it was over 64 µg/mL; in [5], over 64 µg/mL. The MIC in series [6], in [7] and in series [8] was over 64 µg/mL throughout. The IC50 in series [9] (setting [16]) stood at 0.18 µM; in [10] it was 3.5 µM; in series [11] (setting [17]), 0.7 µM; in series [12] (5 days at 37 °C), 0.51 µM. Besides, the “factor between cytotoxic activity” value in [9] is reported as 3–4 fold. In series [13], the “Death rate at 0.5 μg/insect” value was found to be 100%. Moreover, the “cytotoxic effects on host cells (in words)” value in series [14] is listed as “cytotoxic effects at the highest test concentration”.
Take `COc1cccc2c1C(=O)c1c(O)c3c(c(O)c1C2=O)C[C@@](O)(C(=O)CO)C[C@@H]3O[C@H]1C[C@H](N)[C@H](O)[C@H](C)O1` [Doxorubicin, reference compound]: the IC50 in series [11] (positive control, Huh 7.5 cells, 5 days) turned out to be 0.037 µM; in series [12] (positive control, 5 days) it was 0.015 µM.
For `CC(C)=CCC/C(C)=C/CC/C(C)=C/Cn1c(C)[n+](C/C=C(\C)CC/C=C(\C)CCC=C(C)C)c2cc(C)c(C)cc21` [Sandacrabin C], the minimal inhibitory concentration (MIC) in series [1] (24 h at 37 °C) was 128 µg/mL; in series [1] (setting [15]), 128 µg/mL; in [2] it was 64 to 128 µg/mL; in series [3] it was over 64 µg/mL; in series [4] it was over 64 µg/mL; in series [5], over 64 µg/mL. Besides, the minimum inhibitory concentration (MIC) in [6], in series [7] and in [8] was over 64 µg/mL in each case. Besides, the IC50 in series [9] (setting [16]) stood at 0.34 µM; in series [10], 6.8 µM; in series [11] (setting [17]), 3.61 µM; in series [12] (5 days at 37 °C), 1.22 µM. The “factor between cytotoxic activity” value in series [9] was determined as 11 fold. Also, the “Death rate at 0.5 μg/insect” value in series [13] is 90%. The “cytotoxic effects on host cells (in words)” value in series [14] is reported as “cytotoxic effects at the highest test concentration”.
For the compound `CC(C)=CCC/C(C)=C/CC/C(C)=C/Cn1c(/C=C(\C)CC/C=C(\C)CCC=C(C)C)nc2cc(C)c(C)cc21` [Sandacrabin A], the minimum inhibitory concentration (MIC) was 32 µg/mL (≈ 59.2 µM) in series [1] (24 h at 37 °C); 32 µg/mL (≈ 59.2 µM) in series [1] (setting [15]); 128 µg/mL (≈ 237 µM) in series [2]; over 64 µg/mL in series [3]; over 64 µg/mL in series [4]; over 64 µg/mL in series [5]. Also, the minimal inhibitory concentration (MIC) in series [6], in [7] and in series [8] was over 64 µg/mL in each case. For the same compound, the IC50 was over 10 µM in series [9] (setting [16]), 108 µM in series [10], over 37 µM in [11] (setting [17]) and over 37 µM in series [12] (5 days at 37 °C). In addition, the “antiviral activity, effect on viral replication (in words)” value in [9] (cells infected with HCoV229E) was “did not show any effect on viral replication”. Also, in series [13], the “Death rate at 0.5 μg/insect” value was determined as 10%. Moreover, the minimal insecticidal concentration in series [13] (dilution series 5–0.05 μg per insect, test group of three insects) is recorded as over 5 μg/insect.
